The source made the active and inactive calls. The calls are words filed in the database; no cut-off is given here.
Columns and labels:
[1] = biological target: Proto-oncogene tyrosine-protein kinase ROS (Homo sapiens) (UniProt P08922); experiment: Inhibition of ROS (unknown origin) at 1 uM
[2] = biological target: Rhodopsin kinase GRK7 (Homo sapiens) (UniProt Q8WTQ7); experiment: Inhibition of GRK7 (unknown origin) at 1 uM
[3] = biological target: Macrophage-stimulating protein receptor (Homo sapiens) (UniProt Q04912); experiment: Inhibition of RON (unknown origin) at 1 uM
[4] = biological target: Fibroblast growth factor receptor 2 (Homo sapiens) (UniProt P21802); experiment: Inhibition of FGFR2 (unknown origin) at 1 uM
Chain of Fibroblast growth factor receptor 2 (Homo sapiens) (P21802 22-821 limits assumed): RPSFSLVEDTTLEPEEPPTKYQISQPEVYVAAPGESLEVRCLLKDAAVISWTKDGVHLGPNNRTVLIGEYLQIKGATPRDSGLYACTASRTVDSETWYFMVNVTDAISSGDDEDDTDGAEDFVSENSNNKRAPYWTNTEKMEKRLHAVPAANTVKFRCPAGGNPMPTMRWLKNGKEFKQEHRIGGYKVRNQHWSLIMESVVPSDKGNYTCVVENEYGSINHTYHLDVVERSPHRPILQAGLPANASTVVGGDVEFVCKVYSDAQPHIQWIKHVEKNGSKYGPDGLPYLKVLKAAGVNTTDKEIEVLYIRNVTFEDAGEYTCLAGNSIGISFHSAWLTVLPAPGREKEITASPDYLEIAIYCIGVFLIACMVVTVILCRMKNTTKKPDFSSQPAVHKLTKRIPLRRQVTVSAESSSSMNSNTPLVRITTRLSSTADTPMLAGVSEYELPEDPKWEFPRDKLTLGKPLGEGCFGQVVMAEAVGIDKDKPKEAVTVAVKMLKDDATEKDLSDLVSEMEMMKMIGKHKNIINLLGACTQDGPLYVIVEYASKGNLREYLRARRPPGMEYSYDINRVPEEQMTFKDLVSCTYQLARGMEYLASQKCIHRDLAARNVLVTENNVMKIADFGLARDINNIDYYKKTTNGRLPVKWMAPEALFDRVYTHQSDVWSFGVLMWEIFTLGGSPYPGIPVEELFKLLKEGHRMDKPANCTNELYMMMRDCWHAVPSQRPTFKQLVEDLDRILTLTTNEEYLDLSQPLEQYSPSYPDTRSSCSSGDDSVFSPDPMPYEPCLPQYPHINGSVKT

Mus musculus [5] = experiment: In vivo inhibition of TDO in BALB/c mouse xenografted with human HCT-116 cells assessed as suppression of TDO mRNA expression in tumor by quantitative RT-PCR analysis; type: functional, organism-based
[6] = biological target: Serine/threonine-protein kinase 4 (Homo sapiens) (UniProt Q13043); experiment: Inhibition of MST1 (unknown origin) at 1 uM
[7] = biological target: Vascular endothelial growth factor receptor 1 (Homo sapiens) (UniProt P17948); experiment: Inhibition of FLT1 (unknown origin) at 1 uM
[8] = biological target: Dual specificity mitogen-activated protein kinase kinase 2 (Homo sapiens) (UniProt P36507); experiment: Inhibition of MEK2 (unknown origin) at 1 uM
Chain of Dual specificity mitogen-activated protein kinase kinase 2 (Homo sapiens) (P36507 whole entry): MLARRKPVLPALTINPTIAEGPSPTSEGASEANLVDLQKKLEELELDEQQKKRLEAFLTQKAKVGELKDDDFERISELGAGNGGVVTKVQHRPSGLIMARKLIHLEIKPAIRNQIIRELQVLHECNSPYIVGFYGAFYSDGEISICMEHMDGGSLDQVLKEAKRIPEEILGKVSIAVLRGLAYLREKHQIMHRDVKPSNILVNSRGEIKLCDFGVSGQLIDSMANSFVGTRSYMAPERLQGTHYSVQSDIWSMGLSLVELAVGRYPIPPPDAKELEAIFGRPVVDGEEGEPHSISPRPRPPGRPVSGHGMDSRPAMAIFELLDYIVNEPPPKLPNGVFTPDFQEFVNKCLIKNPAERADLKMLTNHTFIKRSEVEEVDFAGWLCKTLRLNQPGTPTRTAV

[9] = biological target: Serine/threonine-protein kinase TAO1 (Homo sapiens) (UniProt Q7L7X3); experiment: Inhibition of TAOK1 (unknown origin) at 1 uM
Chain of Serine/threonine-protein kinase TAO1 (Homo sapiens) (Q7L7X3 whole entry): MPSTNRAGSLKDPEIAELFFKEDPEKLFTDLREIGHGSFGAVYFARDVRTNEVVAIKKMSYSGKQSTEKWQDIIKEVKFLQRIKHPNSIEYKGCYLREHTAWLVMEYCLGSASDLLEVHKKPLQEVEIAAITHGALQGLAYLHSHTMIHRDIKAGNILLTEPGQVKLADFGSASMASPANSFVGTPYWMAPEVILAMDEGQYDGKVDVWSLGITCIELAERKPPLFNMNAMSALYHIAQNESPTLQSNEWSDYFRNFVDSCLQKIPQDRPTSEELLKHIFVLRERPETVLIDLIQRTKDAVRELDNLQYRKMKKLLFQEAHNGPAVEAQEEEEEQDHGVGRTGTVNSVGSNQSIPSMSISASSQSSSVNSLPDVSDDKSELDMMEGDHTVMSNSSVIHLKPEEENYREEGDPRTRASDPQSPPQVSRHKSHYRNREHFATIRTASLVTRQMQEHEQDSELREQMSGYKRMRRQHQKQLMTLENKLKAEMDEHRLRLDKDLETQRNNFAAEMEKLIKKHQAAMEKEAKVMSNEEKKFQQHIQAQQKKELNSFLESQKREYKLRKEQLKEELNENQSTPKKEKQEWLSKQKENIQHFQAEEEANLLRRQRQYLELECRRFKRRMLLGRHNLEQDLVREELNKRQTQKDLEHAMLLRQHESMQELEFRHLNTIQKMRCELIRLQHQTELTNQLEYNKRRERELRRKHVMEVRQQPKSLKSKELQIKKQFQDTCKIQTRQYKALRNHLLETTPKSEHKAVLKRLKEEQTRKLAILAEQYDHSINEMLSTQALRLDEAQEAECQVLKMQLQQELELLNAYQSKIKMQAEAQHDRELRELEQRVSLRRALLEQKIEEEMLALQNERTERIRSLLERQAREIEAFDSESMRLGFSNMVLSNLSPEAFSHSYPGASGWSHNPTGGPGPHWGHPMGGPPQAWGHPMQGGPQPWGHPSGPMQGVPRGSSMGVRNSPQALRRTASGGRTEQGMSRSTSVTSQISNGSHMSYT

[10] = biological target: Dual specificity protein kinase CLK3 (Homo sapiens) (UniProt P49761); experiment: Inhibition of CLK3 (unknown origin) at 1 uM
[11] = biological target: Death-associated protein kinase 1 (Homo sapiens) (UniProt P53355); experiment: Inhibition of DAPK1 (unknown origin) at 1 uM
[12] = biological target: Homeodomain-interacting protein kinase 4 (Homo sapiens) (UniProt Q8NE63); experiment: Inhibition of HIPK4 (unknown origin) at 1 uM
[13] = biological target: Calcium/calmodulin-dependent protein kinase type 1D (Homo sapiens) (UniProt Q8IU85); experiment: Inhibition of CAMK1D (unknown origin) at 1 uM
[14] = biological target: Dual specificity tyrosine-phosphorylation-regulated kinase 1A (Homo sapiens) (UniProt Q13627); experiment: Inhibition of DYRK1A (unknown origin) at 1 uM
[15] = biological target: Activin receptor type-1-like (Homo sapiens) (UniProt P37023); experiment: Inhibition of ALK1 (unknown origin) at 1 uM
Chain of Activin receptor type-1-like (Homo sapiens) (P37023 whole entry): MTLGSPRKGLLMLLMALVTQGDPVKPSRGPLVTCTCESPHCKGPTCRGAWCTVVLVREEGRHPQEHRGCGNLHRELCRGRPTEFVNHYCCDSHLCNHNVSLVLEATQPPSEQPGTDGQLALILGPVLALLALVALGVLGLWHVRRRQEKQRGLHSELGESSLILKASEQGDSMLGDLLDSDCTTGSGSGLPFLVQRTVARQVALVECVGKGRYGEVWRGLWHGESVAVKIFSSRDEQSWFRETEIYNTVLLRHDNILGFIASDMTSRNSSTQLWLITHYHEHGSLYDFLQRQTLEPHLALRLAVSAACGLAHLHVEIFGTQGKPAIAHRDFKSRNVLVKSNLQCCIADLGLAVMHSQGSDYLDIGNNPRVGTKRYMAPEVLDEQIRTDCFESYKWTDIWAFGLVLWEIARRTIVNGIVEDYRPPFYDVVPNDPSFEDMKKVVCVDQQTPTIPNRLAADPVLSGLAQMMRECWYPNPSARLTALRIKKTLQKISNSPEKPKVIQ

[16] = biological target: Serine/threonine-protein kinase PAK 6 (Homo sapiens) (UniProt Q9NQU5); experiment: Inhibition of PAK6 (unknown origin) at 1 uM
Mus musculus [17] = experiment: In vivo inhibition of IDO1/IDO2 in BALB/c mouse xenografted with human HCT-116 cells assessed as reduction in KYN level in serum by […]; type: functional, organism-based
[18] = biological target: Dual specificity tyrosine-phosphorylation-regulated kinase 3 (Homo sapiens) (UniProt O43781); experiment: Inhibition of DYRK3 (unknown origin) at 1 uM
[19] = biological target: CDK6/cyclin D3 (Homo sapiens) (UniProt P30281+Q00534); experiment: Inhibition of CDK6/cyclin-D3 (unknown origin) at 1 uM; type: protein-complex assay
[20] = biological target: LIM domain kinase 2 (Homo sapiens) (UniProt P53671); experiment: Inhibition of LIMK2 (unknown origin) at 1 uM
[21] = biological target: Protein kinase C delta type (Homo sapiens) (UniProt Q05655); experiment: Inhibition of PKCdelta (unknown origin)at 1 uM
[22] = biological target: Platelet-derived growth factor receptor beta (Homo sapiens) (UniProt P09619); experiment: Inhibition of PDGFRbeta (unknown origin) at 1 uM
Chain of Platelet-derived growth factor receptor beta (Homo sapiens) (P09619 whole entry): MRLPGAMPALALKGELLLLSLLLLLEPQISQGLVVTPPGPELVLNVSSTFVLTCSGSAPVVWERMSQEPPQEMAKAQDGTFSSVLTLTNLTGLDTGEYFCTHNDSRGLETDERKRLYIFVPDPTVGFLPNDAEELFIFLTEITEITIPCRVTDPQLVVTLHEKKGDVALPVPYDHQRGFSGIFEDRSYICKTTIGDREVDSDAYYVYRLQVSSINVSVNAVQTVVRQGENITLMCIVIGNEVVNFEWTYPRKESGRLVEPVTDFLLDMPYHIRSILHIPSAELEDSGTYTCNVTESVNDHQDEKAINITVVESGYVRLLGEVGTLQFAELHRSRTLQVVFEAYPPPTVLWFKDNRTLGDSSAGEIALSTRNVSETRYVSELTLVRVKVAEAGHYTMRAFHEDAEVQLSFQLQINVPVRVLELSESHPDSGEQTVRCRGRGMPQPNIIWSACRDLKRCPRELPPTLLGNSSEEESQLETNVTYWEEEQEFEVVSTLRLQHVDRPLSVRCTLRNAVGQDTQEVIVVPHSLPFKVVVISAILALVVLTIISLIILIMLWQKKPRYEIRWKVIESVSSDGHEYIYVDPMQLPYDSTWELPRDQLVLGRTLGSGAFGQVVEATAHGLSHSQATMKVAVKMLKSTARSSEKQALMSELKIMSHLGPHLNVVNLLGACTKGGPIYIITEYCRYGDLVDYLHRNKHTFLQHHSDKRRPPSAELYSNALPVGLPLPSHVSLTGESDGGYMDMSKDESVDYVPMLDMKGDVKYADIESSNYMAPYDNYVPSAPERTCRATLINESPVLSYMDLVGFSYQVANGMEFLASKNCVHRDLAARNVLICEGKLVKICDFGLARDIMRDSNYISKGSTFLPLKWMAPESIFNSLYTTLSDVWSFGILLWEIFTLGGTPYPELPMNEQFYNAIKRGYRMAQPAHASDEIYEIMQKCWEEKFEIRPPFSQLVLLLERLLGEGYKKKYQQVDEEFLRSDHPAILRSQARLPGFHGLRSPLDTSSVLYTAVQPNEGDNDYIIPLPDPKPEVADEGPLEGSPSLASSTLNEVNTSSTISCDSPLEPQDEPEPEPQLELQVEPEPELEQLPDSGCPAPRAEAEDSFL

[23] = biological target: CDK9/Cyclin-T2 (Homo sapiens) (UniProt P50750+O60583); experiment: Inhibition of CDK9/cyclin-T2 (unknown origin) at 1 uM; type: protein-complex assay
[24] = biological target: Protein kinase C eta type (Homo sapiens) (UniProt P24723); experiment: Inhibition of PKCeta (unknown origin)at 1 uM
HCT-116 [25] = experiment: Cytotoxicity against human HCT-116 cells assessed as reduction in cell viability by CCK8 assay; type: functional, cell-based
Homo sapiens = species: Homo sapiens; experiment: Inhibition of ALK6 (unknown origin) at 1 uM
[26] = biological target: Serine/threonine-protein kinase 38 (Homo sapiens) (UniProt Q15208); experiment: Inhibition of STK38 (unknown origin) at 1 uM
[27] = biological target: Maternal embryonic leucine zipper kinase (Homo sapiens) (UniProt Q14680); experiment: Inhibition of MELK (unknown origin) at 1 uM
Chain of Maternal embryonic leucine zipper kinase (Homo sapiens) (Q14680 whole entry, looked up): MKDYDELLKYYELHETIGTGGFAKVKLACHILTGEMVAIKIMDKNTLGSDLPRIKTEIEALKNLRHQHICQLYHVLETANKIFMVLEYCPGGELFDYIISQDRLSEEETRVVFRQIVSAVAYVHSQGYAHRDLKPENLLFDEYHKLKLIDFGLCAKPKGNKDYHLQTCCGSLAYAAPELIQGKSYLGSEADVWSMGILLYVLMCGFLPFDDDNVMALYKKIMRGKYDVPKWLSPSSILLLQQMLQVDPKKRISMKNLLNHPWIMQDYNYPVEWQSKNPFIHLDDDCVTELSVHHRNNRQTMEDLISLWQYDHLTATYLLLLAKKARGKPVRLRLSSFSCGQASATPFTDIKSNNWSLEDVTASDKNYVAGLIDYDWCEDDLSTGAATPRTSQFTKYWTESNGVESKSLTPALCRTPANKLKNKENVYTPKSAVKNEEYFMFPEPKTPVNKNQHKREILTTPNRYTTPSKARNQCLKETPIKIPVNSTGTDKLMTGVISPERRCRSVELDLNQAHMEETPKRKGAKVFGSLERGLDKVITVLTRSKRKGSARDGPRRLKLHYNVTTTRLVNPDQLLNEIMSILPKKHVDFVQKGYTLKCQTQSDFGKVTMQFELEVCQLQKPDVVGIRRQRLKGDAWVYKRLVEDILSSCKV

HCT-116 [28] = experiment: Antitumor immunity in BALB/c mouse xenografted with human HCT-116 cells assessed as increase in CD80 expression in CD11c+ cells by propidium iodide staining based flow cytometry analysis (reference value: 79.8 %); type: functional
[29] = biological target: Protein kinase C beta type (Homo sapiens) (UniProt P05771); experiment: Inhibition of PKCb2 (unknown origin) at 1 uM
[30] = biological target: Tyrosine-protein kinase Lyn (Homo sapiens) (UniProt P07948); experiment: Inhibition of LYN (unknown origin) at 1 uM
[31] = biological target: Glycogen synthase kinase-3 alpha (Homo sapiens) (UniProt P49840); experiment: Inhibition of GSK3A (unknown origin) at 1 uM
[32] = biological target: Calcium/calmodulin-dependent protein kinase type 1B (Homo sapiens) (UniProt Q6P2M8); experiment: Inhibition of CAMK1B (unknown origin) at 1 uM
HCT-116 [33] = experiment: Antitumor immunity in BALB/c mouse xenografted with human HCT-116 cells assessed as increase in IFNgamma in serum by […]; type: functional, cell-based
[34] = biological target: Serine/threonine-protein kinase haspin (Homo sapiens) (UniProt Q8TF76); experiment: Inhibition of haspin (unknown origin) at 1 uM
[35] = biological target: Testis-specific serine/threonine-protein kinase 6 (Homo sapiens) (UniProt Q9BXA6); experiment: Inhibition of SSTK (unknown origin) at 1 uM
[36] = biological target: G protein-coupled receptor kinase 4 (Homo sapiens) (UniProt P32298); experiment: Inhibition of GRK4 (unknown origin) at 1 uM
[37] = biological target: Serine/threonine-protein kinase PAK 1 (Homo sapiens) (UniProt Q13153); experiment: Inhibition of PAK1 (unknown origin) at 1 uM
[38] = biological target: Homeodomain-interacting protein kinase 1 (Homo sapiens) (UniProt Q86Z02); experiment: Inhibition of HIPK1 (unknown origin) at 1 uM
[39] = biological target: Serine/threonine-protein kinase Nek9 (Homo sapiens) (UniProt Q8TD19); experiment: Inhibition of NEK9 (unknown origin) at 1 uM
[40] = biological target: Protein kinase C iota type (Homo sapiens) (UniProt P41743); experiment: Inhibition of PKCiota (unknown origin)at 1 uM
[41] = biological target: Serine/threonine-protein kinase 16 (Homo sapiens) (UniProt O75716); experiment: Inhibition of STK16 (unknown origin) at 1 uM
[42] = biological target: Ephrin type-A receptor 4 (Homo sapiens) (UniProt P54764); experiment: Inhibition of EPHA4 (unknown origin) at 1 uM
[43] = biological target: Non-receptor tyrosine-protein kinase TNK1 (Homo sapiens) (UniProt Q13470); experiment: Inhibition of TNK1 (unknown origin) at 1 uM

Chain of Rhodopsin kinase GRK7 (Homo sapiens) (Q8WTQ7 whole entry): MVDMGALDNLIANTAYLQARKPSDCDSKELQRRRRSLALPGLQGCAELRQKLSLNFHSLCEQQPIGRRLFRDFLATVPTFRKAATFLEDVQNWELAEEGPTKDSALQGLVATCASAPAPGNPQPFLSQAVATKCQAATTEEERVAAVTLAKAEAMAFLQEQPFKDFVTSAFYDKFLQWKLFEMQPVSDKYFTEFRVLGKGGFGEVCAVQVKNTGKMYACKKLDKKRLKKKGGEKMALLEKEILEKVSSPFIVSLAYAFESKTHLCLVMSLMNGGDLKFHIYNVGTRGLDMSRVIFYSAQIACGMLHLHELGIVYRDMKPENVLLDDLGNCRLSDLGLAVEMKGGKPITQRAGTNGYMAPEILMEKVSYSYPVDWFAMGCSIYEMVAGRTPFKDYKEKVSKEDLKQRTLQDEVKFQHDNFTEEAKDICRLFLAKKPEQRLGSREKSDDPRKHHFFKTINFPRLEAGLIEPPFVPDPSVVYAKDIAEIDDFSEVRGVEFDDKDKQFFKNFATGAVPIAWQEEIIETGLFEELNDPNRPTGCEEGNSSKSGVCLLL

OCCOCc1cn(CCNc2nonc2/C(=N/O)Nc2ccc(F)c(Br)c2)nn1
inhibition [1]: inactive | inhibition [2]: inactive | inhibition [3]: inactive | inhibition [4]: inactive | inhibition (Mus musculus [5]): inactive | inhibition [6]: inactive | inhibition [7]: inactive | inhibition [8]: inactive | inhibition [9]: inactive | inhibition [10]: inactive | inhibition [11]: inactive | inhibition [12]: inactive | inhibition [13]: inactive | inhibition [14]: inactive | inhibition [15]: inactive | inhibition [16]: inactive | inhibition (Mus musculus [17]): Active | inhibition [18]: inactive | inhibition [19]: inactive | inhibition [20]: inactive | inhibition [21]: inactive | inhibition [22]: inactive | inhibition [23]: inactive | inhibition [24]: inactive | IC50 (HCT-116 [25]): 56.1 µM | inhibition (Homo sapiens): inactive | inhibition [26]: inactive | inhibition [27]: inactive | Activity (HCT-116 [28]): 75.8% | inhibition [29]: inactive | inhibition [30]: inactive | inhibition [31]: inactive | inhibition [32]: inactive | Activity (HCT-116 [33]): Active | inhibition [34]: inactive | inhibition [35]: inactive | inhibition [36]: inactive | inhibition [37]: inactive | inhibition [38]: inactive | inhibition [39]: inactive | inhibition [40]: inactive | inhibition [41]: inactive | inhibition [42]: inactive | inhibition [43]: inactive

From ChEMBL document CHEMBL5055685, “Discovery of the First Potent IDO1/IDO2 Dual Inhibitors: A Promising Strategy for Cancer Immunotherapy” (J Med Chem, 2021)
